Measurements: US20200024278A1, “COMPOSITION COMPRISING ANTIBIOTIC COMPOUND AND AN HETEROCYCLIC COMPOUND AND THEIR USE IN PREVENTING OR TREATING BACTERIAL INFECTIONS” (MUTABILIS, priority 2016, published 2020)
Like-named read-outs stand apart in the source and are kept apart here.

Tests used:
Experiment in all cases: MIC, broth microdilution (CLSI), substance alone or ATB combined with compound at 4 or 8 μg/mL
PAE 105250 = type: cell-based, P. aeruginosa; conditions: PAE 105250
Summary of the method: (§1)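 Each strain received 5·10^5 CFU/mL of log-phase cells in ca-MHB over DMSO-spotted compound or compound-antibiotic combinations. After 16-20 h at 35° C, growth was scored visually.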

PAE UFR48 = type: cell-based, P. aeruginosa; conditions: PAE UFR48
Summary of the method: as §1

PAE UFR90 = type: cell-based, P. aeruginosa; conditions: PAE UFR90
Summary of the method: as §1

SAU 29213 = type: cell-based, S. aureus; conditions: SAU 29213
Summary of the method: as §1

ECO 190317 = type: cell-based, E. coli; conditions: ECO 190317; for MIC: Escherichia coli
Summary of the method: as §1

ECO UFR39 = type: cell-based, E. coli; conditions: for MIC: Escherichia coli
Summary of the method: as §1

[1] = Pseudomonas aeruginosa, antibiotic alone, read-out: MIC ATB alone

CO/N=C(\C(=O)N[C@@H]1C(=O)N2C(C(=O)O)=C(COC(N)=O)CS[C@H]12)c1ccco1 [FUR, Cefuroxime, reference compound] was tested, and the “MIC ATB combined with Example 11 @8 μg/ml” value (PAE 105250; with Example 11 at 8 μg/ml) was greater than 32 µg/mL, the “MIC ATB combined with Example 12 @8 μg/ml” value (PAE 105250; with Example 12 at 8 μg/ml) was greater than 32 µg/mL and the “MIC ATB combined with Example 13 @8 μg/ml” value (PAE 105250; with Example 13 at 8 μg/ml) was greater than 32 µg/mL. The “MIC ATB combined with Example 14 @8 μg/ml” value (PAE 105250; with Example 14 at 8 μg/ml) was greater than 32 µg/mL, the “MIC ATB combined with Example 15 @4 μgml” value (PAE 105250; with Example 15 at 4 μg/ml) was greater than 32 µg/mL and the “MIC ATB combined with Example 16 @4 μg/ml” value (PAE 105250; with Example 16 at 4 μg/ml) was greater than 32 µg/mL. The MIC (PAE 105250; [1]) was greater than 512 µg/mL, the “MIC ATB combined with Example 1 @8 μg/ml” value (PAE UFR48; with Example 1 @8 μg/ml) was less than 0.031 µg/mL and the “MIC ATB combined with Example 1 @8 μg/ml” value (PAE UFR48; with Example 1 at 8 μg/ml) was less than 0.031 µg/mL. The “MIC ATB combined with Example 7 @8 μgml” value (PAE UFR48; with Example 7 at 8 μg/ml) was greater than 32 µg/mL, the “MIC ATB combined with Example 9 @4 μg/ml” value (PAE UFR48; with Example 9 @4 μg/ml) was greater than 32 µg/mL and the “MIC ATB combined with Example 9 @4 μg/ml” value (PAE UFR48; with Example 9 at 4 μg/ml) was greater than 32 µg/mL. For the same compound, the “MIC ATB combined with Example 11 @8 μg/ml” value (PAE UFR48; with Example 11 at 8 μg/ml) was greater than 32 µg/mL, the “MIC ATB combined with Example 12 @8 μg/ml” value (PAE UFR48; with Example 12 at 8 μg/ml) was greater than 32 µg/mL and the “MIC ATB combined with Example 13 @8 μg/ml” value (PAE UFR48; with Example 13 at 8 μg/ml) was greater than 32 µg/mL. The “MIC ATB combined with Example 14 @8 μg/ml” value (PAE UFR48; with Example 14 at 8 μg/ml) was greater than 32 µg/mL, the “MIC ATB combined with Example 15 @4 μgml” value (PAE UFR48; with Example 15 at 4 μg/ml) was greater than 32 µg/mL and the “MIC ATB combined with Example 16 @4 μg/ml” value (PAE UFR48; with Example 16 at 4 μg/ml) was greater than 32 µg/mL. The MIC (PAE UFR48; [1]) was greater than 32 µg/mL, the “MIC ATB combined with Example 1 @8 μg/ml” value (PAE UFR90; with Example 1 @8 μg/ml) was less than 0.031 µg/mL and the “MIC ATB combined with Example 1 @8 μg/ml” value (PAE UFR90; with Example 1 at 8 μg/ml) was less than 0.031 µg/mL. For the same compound, the “MIC ATB combined with Example 7 @8 μgml” value (PAE UFR90; with Example 7 at 8 μg/ml) was greater than 32 µg/mL, the “MIC ATB combined with Example 9 @4 μg/ml” value (PAE UFR90; with Example 9 @4 μg/ml) was greater than 32 µg/mL and the “MIC ATB combined with Example 9 @4 μg/ml” value (PAE UFR90; with Example 9 at 4 μg/ml) was greater than 32 µg/mL. For the same compound, the “MIC ATB combined with Example 11 @8 μg/ml” value (PAE UFR90; with Example 11 at 8 μg/ml) was greater than 32 µg/mL, the “MIC ATB combined with Example 12 @8 μg/ml” value (PAE UFR90; with Example 12 at 8 μg/ml) was greater than 32 µg/mL and the “MIC ATB combined with Example 13 @8 μg/ml” value (PAE UFR90; with Example 13 at 8 μg/ml) was greater than 32 µg/mL. The “MIC ATB combined with Example 14 @8 μg/ml” value (PAE UFR90; with Example 14 at 8 μg/ml) was greater than 32 µg/mL, the “MIC ATB combined with Example 15 @4 μgml” value (PAE UFR90; with Example 15 at 4 μg/ml) was greater than 32 µg/mL and the “MIC ATB combined with Example 16 @4 μg/ml” value (PAE UFR90; with Example 16 at 4 μg/ml) was greater than 32 µg/mL. For the same compound, the MIC (PAE UFR90; [1]) was greater than 32 µg/mL, the “MIC ATB combined with Example 1 @8 μg/ml” value (SAU 29213; with Example 1 @8 μg/ml) was 1 µg/mL and the “MIC ATB combined with Example 1 @8 μg/ml” value (SAU 29213; with Example 1 at 8 μg/ml) was 1 µg/mL. The “MIC ATB combined with Example 7 @8 μgml” value (SAU 29213; with Example 7 at 8 μg/ml) was 1 µg/mL, the “MIC ATB combined with Example 9 @4 μg/ml” value (SAU 29213; with Example 9 @4 μg/ml) was less than 0.031 µg/mL and the “MIC ATB combined with Example 9 @4 μg/ml” value (SAU 29213; with Example 9 at 4 μg/ml) was less than 0.031 µg/mL. The “MIC ATB combined with Example 11 @8 μg/ml” value (SAU 29213; with Example 11 at 8 μg/ml) was less than 0.031 µg/mL, the “MIC ATB combined with Example 12 @8 μg/ml” value (SAU 29213; with Example 12 at 8 μg/ml) was less than 0.031 µg/mL and the “MIC ATB combined with Example 13 @8 μg/ml” value (SAU 29213; with Example 13 at 8 μg/ml) was 1 µg/mL. For the same compound, the “MIC ATB combined with Example 14 @8 μg/ml” value (SAU 29213; with Example 14 at 8 μg/ml) was less than 0.031 µg/mL, the “MIC ATB combined with Example 15 @4 μgml” value (SAU 29213; with Example 15 at 4 μg/ml) was less than 0.031 µg/mL and the “MIC ATB combined with Example 16 @4 μg/ml” value (SAU 29213; with Example 16 at 4 μg/ml) was less than 0.031 µg/mL. For the same compound, the MIC (SAU 29213; Staphylococcus aureus, antibiotic alone, read-out: MIC ATB alone) was 2 µg/mL, the “MIC ATB combined with Example 1 @8 μg/ml” value (ECO 190317; with Example 1 @8 μg/ml) was less than 0.031 µg/mL and the “MIC ATB combined with Example 1 @8 μg/ml” value (ECO 190317; with Example 1 at 8 μg/ml) was less than 0.031 µg/mL. The “MIC ATB combined with Example 7 @8 μgml” value (ECO 190317; with Example 7 at 8 μg/ml) was less than 0.031 µg/mL, the “MIC ATB combined with Example 9 @4 μg/ml” value (ECO 190317; with Example 9 @4 μg/ml) was less than 0.031 µg/mL and the “MIC ATB combined with Example 9 @4 μg/ml” value (ECO 190317; with Example 9 at 4 μg/ml) was less than 0.031 µg/mL. For the same compound, the “MIC ATB combined with Example 11 @8 μg/ml” value (ECO 190317; with Example 11 at 8 μg/ml) was less than 0.031 µg/mL, the “MIC ATB combined with Example 12 @8 μg/ml” value (ECO 190317; with Example 12 at 8 μg/ml) was less than 0.031 µg/mL and the “MIC ATB combined with Example 13 @8 μg/ml” value (ECO 190317; with Example 13 at 8 μg/ml) was less than 0.031 µg/mL. For the same compound, the “MIC ATB combined with Example 14 @8 μg/ml” value (ECO 190317; with Example 14 at 8 μg/ml) was less than 0.031 µg/mL, the “MIC ATB combined with Example 15 @4 μgml” value (ECO 190317; with Example 15 at 4 μg/ml) was less than 0.031 µg/mL and the “MIC ATB combined with Example 16 @4 μg/ml” value (ECO 190317; with Example 16 at 4 μg/ml) was less than 0.031 µg/mL. For the same compound, the MIC (ECO 190317; antibiotic alone, read-out: MIC ATB alone) was greater than 512 µg/mL, the MIC (ECO 190317; substance alone, read-out: MIC) was greater than 512 µg/mL and the “MIC ATB combined with Example 1 @8 μg/ml” value (ECO UFR39; ECO UFR39, with Example 1 @8 μg/ml) was greater than 32 µg/mL. For the same compound, the “MIC ATB combined with Example 1 @8 μg/ml” value (ECO UFR39; ECO UFR39, with Example 1 at 8 μg/ml) was greater than 32 µg/mL, the “MIC ATB combined with Example 7 @8 μgml” value (ECO UFR39; ECO UFR39, with Example 7 at 8 μg/ml) was less than 0.031 µg/mL and the “MIC ATB combined with Example 9 @4 μg/ml” value (ECO UFR39; ECO UFR39, with Example 9 @4 μg/ml) was less than 0.031 µg/mL. The “MIC ATB combined with Example 9 @4 μg/ml” value (ECO UFR39; ECO UFR39, with Example 9 at 4 μg/ml) was less than 0.031 µg/mL, the “MIC ATB combined with Example 11 @8 μg/ml” value (ECO UFR39; ECO UFR39, with Example 11 at 8 μg/ml) was less than 0.031 µg/mL and the “MIC ATB combined with Example 12 @8 μg/ml” value (ECO UFR39; ECO UFR39, with Example 12 at 8 μg/ml) was less than 0.031 µg/mL. The “MIC ATB combined with Example 13 @8 μg/ml” value (ECO UFR39; ECO UFR39, with Example 13 at 8 μg/ml) was less than 0.031 µg/mL, the “MIC ATB combined with Example 14 @8 μg/ml” value (ECO UFR39; ECO UFR39, with Example 14 at 8 μg/ml) was less than 0.031 µg/mL and the “MIC ATB combined with Example 15 @4 μgml” value (ECO UFR39; ECO UFR39, with Example 15 at 4 μg/ml) was less than 0.031 µg/mL. The “MIC ATB combined with Example 16 @4 μg/ml” value (ECO UFR39; ECO UFR39, with Example 16 at 4 μg/ml) was less than 0.031 µg/mL, the MIC (ECO UFR39) was greater than 256 µg/mL and the MIC (ECO UFR39; ECO UFR39, antibiotic alone, read-out: MIC ATB alone) was greater than 32 µg/mL.
